Columns and labels:
Assay type in all cases: cell-based, human
[1] = test system: RAD21-mAID-Clover fusion protein; experiment: Western blotting of RAD21-mAID-Clover after auxin treatment (AID method); conditions: 500 μM auxin for 20 hours, HCT116 with or without OsTIR1
Description: (§1) In this experiment, wild-type HCT116 cells and HCT 116 cells modified to constitutively express OsTIR1 necessary for an auxin-inducible degron (AID) method were used as materials. Proliferating cells were prepared in a 6-well plate. 0.8 μg of pX330 for cleaving the target portion of RAD21 gene and 0.6 μg of each of the constructed donor vectors having neomycin and hygromycin resistance markers were mixed and transfected into the cells using Fugene HD (available from Promega Corporation). For transfection, DNA and Fugene HD were mixed according to the instruction manual, allowed to stand for 15 minutes and then added dropwise to the medium.
A protein was extracted from clones in which insertions into both alleles were confirmed by genomic PCR, and subjected to Western blotting using a RAD21 antibody and a mAID antibody (right in FIG. 6). […] The RAD21 to which mAID-Clover was not added was detected at 105 kDa. On the other hand, the RAD21-mAID-Clover fusion protein was detected at 145 kDa. As shown in the right side of FIG. 6, in the case where a RAD21 antibody was used, a 105 kDa band was detected in the original HCT116 cells (WT), whereas in the case where mAID-Clover was added to both alleles, a 145 kDa band was detected. In addition, in the case where a mAID antibody was used, only the RAD21 protein having mAID-Clover added thereto was detected.

[2] = test system: RAD21-mAID-Clover fusion protein; experiment: Deconvolution fluorescence microscopy of living cells expressing RAD21-mAID-Clover after auxin treatment; conditions: 500 μM auxin, observed after 90 minutes, HCT116 with or without OsTIR1
Description: as §1
In the cells before treatment with auxin (3-indole acetic acid), it was observed that RAD21-mAID-Clover was localized in the cell nucleus, regardless of expression of OsTIR1.

[3] = test system: DHC1 protein having mAID-Clover added; experiment: Western blotting with DHC1 antibody after doxycycline and auxin treatment; conditions: 500 μM auxin with 2 μg/mL doxycycline for 2, 4, 6, 8, 10 and 24 hours
Description: as §1, with “DHC1” for “RAD21”
A protein was extracted from clones in which insertions into both alleles were confirmed by genomic PCR, and subjected to Western blotting using a DHC1 antibody and an OsTIR antibody (right in FIG. 10). In addition, a protein was similarly extracted from the cells treated with 2 μg/mL of doxycycline and 500 μM of auxin (3-indole acetic acid) for 2, 4, 6, 8, 10, and 24 hours, and used for Western blotting.

[4] = test system: living cells in which a DHC1-mAID-Clover fusion protein is expressed; experiment: Relative number of cells after treatment of cells expressing DHC1-mAID-Clover; conditions: 500 μM auxin with 2 μg/mL doxycycline; 24, 48 and 72 hours relative to zero hours
Description: FIG. 11 is a graph showing the relative number of cells at 24, 48, and 72 hours after treatment with respect to the number of cells at zero hours after treatment, using living cells in which a DHC1-mAID-Clover fusion protein is expressed, untreated and treated with 2 μg/mL of doxycycline alone, or 2 μg/mL of doxycycline and 500 μM of auxin.
The relative number of cells at 24, 48, and 72 hours after treatment was calculated with respect to the number of cells at zero hours after treatment, using living cells in which a DHC1-mAID-Clover fusion protein is expressed, untreated and treated with 2 μg/mL of doxycycline alone, or 2 μg/mL of doxycycline and 500 μM of auxin (FIG. 11).

[5] = test system: living cells in which a DHC1-mAID-Clover fusion protein is expressed; experiment: Percentage of mitotic cells and fluorescence microscopy (tubulin antibody, SiR-Hoechst) of cells expressing DHC1-mAID-Clover; conditions: 500 μM auxin with 1 μg/mL tetracycline
Description: FIG. 12 is a graph showing the percentage of mitotic cells at 18 and 42 hours after treatment, using living cells in which a DHC1-mAID-Clover fusion protein is expressed, untreated and treated with 1 μg/mL of tetracycline alone, or 1 μg/mL of tetracycline and 500 μM of auxin.
The percentage of mitotic cells at 18 and 42 hours after treatment was calculated, using living cells in which a DHC1-mAID-Clover fusion protein is expressed, untreated and treated with 1 μg/mL of tetracycline alone, or 1 μg/mL of tetracycline and 500 μM of auxin (FIG. 12).
In addition, fluorescence microscope observation was carried out after immunostaining with a tubulin antibody and nuclear staining with SiR-Hoechst at 18 hours after treatment for living cells in which a DHC1-mAID-Clover fusion protein is expressed, untreated and treated with 1 μg/mL of tetracycline and 500 μM of auxin (FIG. 13).

SMILES: O=C(O)Cc1c[nH]c2ccccc12 [auxin, 3-indole acetic acid]
- Degradation of RAD21-mAID-Clover (Western blotting) [1]: disappearance of RAD21-mAID-Clover occurred in OsTIR1-expressing cells
- Disappearance of RAD21-mAID-Clover from the nucleus (fluorescence microscope) [2]: RAD21-mAID-Clover disappeared only in cells expressing OsTIR1
- DHC1-mAID-Clover protein level (DHC1 antibody) [3]: disappeared with time
- Relative number of cells (cell proliferation) [4]: cell proliferation was suppressed after 48 hours from the treatment
- Percentage of mitotic cells ([5]; 18 and 42 hours after treatment): accumulation of mitotic cells
- Chromosomal structure (fluorescence microscopy) ([5]; 18 hours after treatment): a chromosomal structural abnormality occurred
